Measured values: patent US8193326B2, “Nucleic acids encoding novel TERT polypeptides” (GemVax AS, priority 2000, dated 2012)

System: T cells from human peripheral blood mononuclear cells (PBMC)
Test: Induction and proliferation of human T cell response to peptide (3H-thymidine proliferation assay)
Format: cell-based
Settings: PBMC from four healthy donors primed with peptide-pulsed dendritic cells, re-stimulated with peptide-pulsed autologous PBMC, mean cpm of triplicates
Excerpt: In this experiment, peripheral blood mononuclear cells (PBMC) from four healthy humans (donors “14328”, “14313”, “23244” and “23255”) and were isolated and primed for seven days with dendritic cells pulsed with the SEQ ID NO: 11 peptide derived from the hTERT σ-insert polypeptide, followed by two cycles consisting of seven days re-stimulation with peptide-pulsed autologous PBMC. The dendritic cells were derived from monocytes from peripheral blood. T cells from the resulting bulk: culture were tested in triplicate with or without peptide-pulsed antigen presenting cells (APC) before harvesting after 3 days. To measure the proliferative capacity of the cultures, ^3H-thymidine (3.7×10^4 Bq/well) was added to the culture overnight before harvesting. Cultures with non-pulsed APC or without APC served as controls. Further details of the protocol used are set out below.
T cell clones were obtained from the resulting bulk cultures from non-vaccinated donors 14313 and 23255. […]
PBMCs were separated out from 50 ml of blood (from buffy coat). The cells were counted and re-suspended in complete RPMI-1640/15% pool serum. […]
Bulk cultures were harvested and stimulated with irradiated PBMCs and peptide. If there was high cell death, cultures were lymphoprep separated, otherwise they were counted and resuspended in RPMI/15% pool serum. […]

For “SEQ ID NO: 11: peptide derived from the hTERT σ-insert polypeptide (RVAVLWFNFLFKQKPSVSPRG; listed as Homo sapiens)”, the “proliferative T cell response / peptide-specific T cells (bulk cultures and T cell clones, FIGS. 7-9)” value was “T cells can be expanded in vitro following stimulation with the relevant peptide”.
